Data: patent US12473339B2, “Acylated glucagon analogues” (Zealand Pharma A/S, priority 2013, dated 2025)
*1 amine or outer side, *2 acyl side, *3 side chain or, on linkers, in order; H or OH if unused. Where a SMILES comes first, the peptide text is derived from it. Side-chain parts run from the residue outwards. [ ]: non-standard residue; d: D form. The star is where a group is joined. C18 diacid = O=C(O)CCCCCCCCCCCCCCCCC(=O)*; γGlu = O=C(O)[C@H](CCC(=O)[*:2])N[*:1]; Ac4c = NC1(C(=O)O)CCC1; AEEA = NCCOCCOCC(=O)O; Aib = CC(C)(N)C(=O)O

Tests used:
[1] = Pharmacokinetic parameters after intravenous administration to rats; conditions: male, Han/Wistar, rat, in vivo, 20 nmol/kg
Description: Pharmacokinetic parameters of the test compounds were determined after intravenous administration to Han/Wistar rats. The acylated GLP-1 analogue semaglutide was also tested for comparison purposes. Male Wistar rats were obtained from Charles River (Germany) weighing approximately 180 to 210 g at time of arrival at the test facility. Rats were caged in European standard rat cages type IV with light cycle of 12-hour dark and 12-hour light. During the study rats were housed in standard rat cages type III. Both diet Altromin 1324 (Altromin, Germany) and water was administered ad libitum during the whole experimental period. The animals were housed in the test facility for at least 4 days in order to assure proper acclimatization. The compounds were first dissolved in 0.1% aqueous ammonia to a nominal concentration of 2 mg/ml, and then diluted to the desired dosing strength (10 μM) in sterile PBS containing 25 mM phosphate buffer, pH 7.4. Intravenous injections corresponding to 20 nmol/kg were given via a lateral tail vein. Blood samples (200 μl) were collected from the periorbital plexus at time points 0.08, 0.25, 0.5, 1, 2, 4, 8, 24, 32 and 48 h post dosing into K3EDTA tubes and centrifuged for 5 minutes at 4° C. within 20 minutes of sampling. […] Individual plasma concentration-time profiles were analysed by a non-compartmental approach using ToxKin™ version 3.2 (Unilog IT Services), and the resulting pharmacokinetic parameters were determined.

[2] = target: T1, endogenous glucagon receptor (Rattus norvegicus, UniProt P30082); assay: Agonistic activity on endogenous glucagon receptor (glycogen synthesis rate in primary rat hepatocytes); type: cell-based; conditions: inhibition of glycogen synthesis rate (14C-glucose incorporation), 3 hours
T1 construct: Agonistic activity of the test compounds on endogenous glucagon receptor; endogenous in cells; host or cells: primary rat hepatocytes
Description: Agonistic activity of the test compounds on endogenous glucagon receptor was determined by measuring their effect on rate of glycogen synthesis in primary rat hepatocytes. Upon activation of the glucagon receptor, an inhibition of the glycogen synthesis rate is expected. Rate of glycogen synthesis was determined by counting the amount of radioactively labeled glucose incorporated into the cellular glycogen stores in a defined period of time.
Primary rat hepatocytes were cultured at a density of 40,000 cells/well in a 24-well plate for 24 hours at 37° C. and 5% CO2.
Medium was discarded and the cells washed with PBS. 180 μL of KRBH-based buffer containing 0.1% BSA and glucose at a concentration of 22.5 mM was then added to the wells, followed by test compound and 40 μCi/ml D-[U14C] glucose (20 μL each). Incubation was continued for 3 hours.
At the end of the incubation period, the incubation buffer was aspirated and cells washed once with ice-cold PBS before lysis by incubation for 30 min at room temperature with 100 μL 1 mol/l NaOH.
Cell lysates were transferred to 96-well filter plates and glycogen precipitated by incubating the filter-plates for 120 min at 4° C. followed by washing the filter plates 4 times with ice-cold ethanol (70%). The resulting precipitates were filtered to dryness and the amount of incorporated ^14C-glucose determined by using a Topcount scintillation counter according to manufacturer's recommendations.
Wells with vehicle controls (0.1% (v/v) DMSO in KRBH buffer) were included as reference for non-inhibited glycogen synthesis (100% CTL). Wells without added D-[U^14C] glucose were included as controls for non-specific background signal (subtracted from all values). Endogenous glucagon peptide was used as a positive control.
All treatments were performed at least in duplicates.
Parameters calculated to describe both the potency as well as the agonistic activity of each test compound on the endogenous glucagon receptor are pEC50 and % CTL.
% CTL is determined by calculating the percentage of CPM/well in the presence of the test compound compared to the CPM/well of the vehicle control after subtracting the background CPM/well: [CPM/well(basal)−CPM/well(sample)]*100/[CPM/well(basal)−CPM/well(control)]
An activator of the glucagon receptor will result in an inhibition of the glycogen synthesis rate and will give % CTL values between 0% CTL (complete inhibition) and 100% CTL (no observable inhibition).
The resulting activity curves were plotted as absolute counts (unit: cpm/sample) over log (test compound concentration) and analyzed using the curve fitting program XLfit.
pEC50 (negative logarithmic value of EC50) reflects the potency of the test compound. […]

[3] = target: T2, human glucagon-like peptide 1 receptor (GLP-1R) (Homo sapiens, UniProt P43220); assay: GLP-1 receptor efficacy assay (cAMP AlphaScreen, CHO cells); type: cell-based; conditions: for Ratio GLP-1/Glucagon: EC50 [GLP-1R] / EC50 [Glucagon-R], human receptors in CHO-K1
T2 construct: expressed in transfected cells
Excerpt: (§1) The cDNA encoding either the human glucagon receptor (Glucagon-R) (primary accession number P47871) or the human glucagon-like peptide 1 receptor (GLP-1R) (primary accession number P43220) were synthesized and cloned into a mammalian expression vector containing a Zeocin resistance marker.
(§2) The mammalian expression vectors encoding the Glucagon-R or the GLP-1-R were transfected into Chinese hamster ovary (CHO) cells by the Attractene method. Stably expressing clones were obtained by Zeocin selection (250 μg/mL) upon limited dilution of cells resistant to the selection pressure. Glucagon-R and GLP-1-R cell clones expressing were picked, propagated and tested in the Glucagon-R and GLP-1-R efficacy assays as described below. One Glucagon-R expressing clone and one GLP-1-R expressing clone were chosen for compound profiling.
(§3) CHO cells expressing the human Glucagon-R, or human GLP-1-R were seeded 24 hours prior to the assay at 30,000 cells per well in 96-well microtiter plates in culture in 100 μl growth medium. On the day of analysis, growth medium was removed and the cells were washed once with 200 μl of assay buffer (Krebs-Ringer-buffer—KRBH). The buffer was removed and the cells were incubated for 15 min at room temperature in 10 μl KRBH (KRBH+10 mM HEPES, 5 mM NaHCO3, 0.1% (V/V) BSA) with 0.1 mM IBMX in deionized water containing increasing concentrations of test peptides. The reaction was stopped by the addition of lysis buffer (0.1% w/v BSA, 5 mM HEPES, 0.3% v/v Tween-20). After cell lysis for 10 min at room temperature, lysates were transferred to 384-well plates and 10 μl of acceptor/donorbead mixture as contained in the AlphaScreen™ cAMP Functional Assay Kit was added. After one hour of incubation at room temperature in the dark, the cAMP content was determined applying the AlphaScreen™ cAMP Functional Assay Kit from Perkin-Elmer according to manufacturer instructions. EC50 and relative efficacies compared to reference compounds (glucagon and GLP-1) were calculated applying computer aided curve fitting. The GLP-1/glucagon ratio is calculated as defined earlier.

[4] = target: T3, human glucagon receptor (Glucagon-R) (Homo sapiens, UniProt P47871); assay: Glucagon receptor efficacy assay (cAMP AlphaScreen, CHO cells); type: cell-based; conditions: cAMP formation, CHO cells expressing human Glucagon-R, 15 min; read-out: EC50 hGCGR CHO-K1
T3 construct: expressed in transfected cells
Excerpt: as §1, §2, §3

T1 sequence (P30082 27-485): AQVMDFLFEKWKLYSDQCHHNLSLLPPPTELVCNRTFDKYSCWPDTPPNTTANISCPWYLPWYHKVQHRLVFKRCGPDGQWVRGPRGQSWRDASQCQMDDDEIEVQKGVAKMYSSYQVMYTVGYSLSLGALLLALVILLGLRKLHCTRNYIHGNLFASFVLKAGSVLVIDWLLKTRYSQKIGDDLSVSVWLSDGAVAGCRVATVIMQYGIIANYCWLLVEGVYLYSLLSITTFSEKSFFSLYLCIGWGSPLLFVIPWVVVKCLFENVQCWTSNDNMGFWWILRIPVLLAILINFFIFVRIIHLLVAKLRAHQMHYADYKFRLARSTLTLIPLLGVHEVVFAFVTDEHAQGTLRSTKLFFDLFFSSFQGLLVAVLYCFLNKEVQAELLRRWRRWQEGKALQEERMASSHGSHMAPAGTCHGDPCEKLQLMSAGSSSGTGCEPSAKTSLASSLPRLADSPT
T2 sequence (P43220 24-463): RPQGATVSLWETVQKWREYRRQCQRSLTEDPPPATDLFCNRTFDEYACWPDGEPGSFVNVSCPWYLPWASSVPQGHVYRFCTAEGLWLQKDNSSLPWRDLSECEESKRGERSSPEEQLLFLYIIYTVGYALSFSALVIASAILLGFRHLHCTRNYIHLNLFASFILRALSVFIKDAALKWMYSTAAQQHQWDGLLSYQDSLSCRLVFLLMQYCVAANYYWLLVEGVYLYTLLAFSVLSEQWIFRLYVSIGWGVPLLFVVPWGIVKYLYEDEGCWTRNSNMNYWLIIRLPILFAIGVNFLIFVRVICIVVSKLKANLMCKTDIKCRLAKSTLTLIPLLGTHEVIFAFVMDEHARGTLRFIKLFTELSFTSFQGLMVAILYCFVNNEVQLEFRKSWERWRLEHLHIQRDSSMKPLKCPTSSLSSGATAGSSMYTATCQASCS
T3 sequence (P47871 26-477): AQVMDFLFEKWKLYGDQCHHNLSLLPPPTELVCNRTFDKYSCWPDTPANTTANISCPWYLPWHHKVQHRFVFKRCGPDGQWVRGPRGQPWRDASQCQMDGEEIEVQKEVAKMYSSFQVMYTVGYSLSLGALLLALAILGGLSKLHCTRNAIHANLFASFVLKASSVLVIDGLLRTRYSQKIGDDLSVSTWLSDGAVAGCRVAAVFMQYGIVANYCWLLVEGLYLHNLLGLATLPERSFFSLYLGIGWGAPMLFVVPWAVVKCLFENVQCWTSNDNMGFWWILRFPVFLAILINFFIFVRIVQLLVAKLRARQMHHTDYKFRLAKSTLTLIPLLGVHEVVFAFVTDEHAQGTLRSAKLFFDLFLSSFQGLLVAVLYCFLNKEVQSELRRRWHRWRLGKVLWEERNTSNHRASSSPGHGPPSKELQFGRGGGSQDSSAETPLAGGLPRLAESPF

MRT [1] [h] | clearance [1] [mL/min/kg] | half-life [1] [h] | EC50 [2] [nM] | Ratio GLP-1/Glucagon [3] | EC50 [4] [nM] | EC50 ([3]; cAMP formation, CHO cells expressing human GLP-1-R, 15 min, read-out: EC50 hGLP-1R CHO-K1) [nM] | SMILES
13.6 | 0.11 | 9.1 | 0.11 | 13.54 |  |  | CC[C@H](C)[C@H](NC(=O)[C@H](Cc1ccccc1)NC(=O)[C@H](CC(=O)O)NC(=O)[C@H](CCCCN)NC(=O)[C@H](C)NC(=O)[C@H](C)NC(=O)[C@H](CCCNC(=N)N)NC(=O)[C@H](CCCCNC(=O)COCCOCCNC(=O)COCCOCCNC(=O)CC[C@H](NC(=O)CCCCCCCCCCCCCCCCC(=O)O)C(=O)O)NC(=O)[C@H](CC(=O)O)NC(=O)[C@H](CC(C)C)NC(=O)[C@H](Cc1ccc(O)cc1)NC(=O)[C@H](CCCCN)NC(=O)[C@H](CO)NC(=O)[C@H](Cc1ccc(O)cc1)NC(=O)[C@H](CC(=O)O)NC(=O)[C@H](CO)NC(=O)[C@@H](NC(=O)[C@H](Cc1ccccc1)NC(=O)[C@@H](NC(=O)CNC(=O)[C@H](CCC(N)=O)NC(=O)C(C)(C)NC(=O)[C@@H](N)Cc1c[nH]cn1)[C@@H](C)O)[C@@H](C)O)C(=O)N[C@@H](CCC(=O)O)C(=O)N[C@@H](Cc1c[nH]c2ccccc12)C(=O)N[C@@H](CC(C)C)C(=O)N[C@@H](CCC(=O)O)C(=O)N[C@@H](CO)C(=O)N[C@@H](C)C(N)=O [Compound 2, H-H-Aib-QGTFTSDYSKYLD-K([17-carboxy-heptadecanoyl]-isoGlu-Peg3-Peg3)-RAAKDFIEWLESA-NH2] (H-H[Aib]QGTFTSDYSKYLDK([AEEA-AEEA-γGlu-C18 diacid])RAAKDFIEWLESA-NH2)
 |  |  | 0.11 | 13.86 | 0.07 | 0.97 | CC[C@H](C)[C@H](NC(=O)[C@H](Cc1ccccc1)NC(=O)[C@H](CC(=O)O)NC(=O)[C@H](CCCCN)NC(=O)[C@H](C)NC(=O)[C@H](CCCNC(=N)N)NC(=O)[C@H](CCCCNC(=O)COCCOCCNC(=O)COCCOCCNC(=O)CC[C@H](NC(=O)CCCCCCCCCCCCCCCCC(=O)O)C(=O)O)NC(=O)[C@H](CCC(=O)O)NC(=O)[C@H](CC(=O)O)NC(=O)[C@H](CC(C)C)NC(=O)[C@H](Cc1ccc(O)cc1)NC(=O)[C@H](CCCCN)NC(=O)[C@H](CO)NC(=O)[C@H](Cc1ccc(O)cc1)NC(=O)[C@H](CC(=O)O)NC(=O)[C@H](CO)NC(=O)[C@@H](NC(=O)[C@H](Cc1ccccc1)NC(=O)[C@@H](NC(=O)CNC(=O)[C@H](Cc1c[nH]cn1)NC(=O)C1(NC(=O)[C@@H](N)Cc2c[nH]cn2)CCC1)[C@@H](C)O)[C@@H](C)O)C(=O)N[C@@H](CCC(=O)O)C(=O)N[C@@H](Cc1c[nH]c2ccccc12)C(=O)N[C@@H](CC(C)C)C(=O)N[C@@H](CCC(=O)O)C(=O)N[C@@H](CO)C(=O)N[C@@H](C)C(N)=O [Compound 9, H-H-Ac4c-HGTFTSDYSKYLDE-K([17-carboxy-heptadecanoyl]-isoGlu-Peg3-Peg3)-RAKDFIEWLESA-NH2] (H-H[Ac4c]HGTFTSDYSKYLDEK([AEEA-AEEA-γGlu-C18 diacid])RAKDFIEWLESA-NH2)
 |  |  | 0.19 | 3.33 | 0.18 |  | CC[C@H](C)[C@H](NC(=O)[C@H](Cc1ccccc1)NC(=O)[C@H](CC(=O)O)NC(=O)[C@H](CCCCN)NC(=O)[C@H](C)NC(=O)[C@H](CCCNC(=N)N)NC(=O)[C@H](CCCNC(=N)N)NC(=O)[C@H](CCC(=O)O)NC(=O)[C@H](CC(=O)O)NC(=O)[C@H](CC(C)C)NC(=O)[C@H](Cc1ccc(O)cc1)NC(=O)[C@H](CCCCN)NC(=O)[C@H](CO)NC(=O)[C@H](Cc1ccc(O)cc1)NC(=O)[C@H](CC(=O)O)NC(=O)[C@H](CO)NC(=O)[C@@H](NC(=O)[C@H](Cc1ccccc1)NC(=O)[C@@H](NC(=O)CNC(=O)[C@H](CCC(N)=O)NC(=O)C1(NC(=O)[C@@H](N)Cc2c[nH]cn2)CCC1)[C@@H](C)O)[C@@H](C)O)C(=O)N[C@@H](CCCCNC(=O)CNC(=O)CNC(=O)[C@H](CO)NC(=O)CNC(=O)[C@H](CO)NC(=O)CNC(=O)CC[C@H](NC(=O)CCCCCCCCCCCCCCCCC(=O)O)C(=O)O)C(=O)N[C@@H](Cc1c[nH]c2ccccc12)C(=O)N[C@@H](CC(C)C)C(=O)N[C@@H](CCC(=O)O)C(=O)N[C@@H](CO)C(=O)N[C@@H](C)C(N)=O [Compound 14]
 |  |  | 0.19 | 3.31 |  |  | CC[C@H](C)[C@H](NC(=O)[C@H](Cc1ccccc1)NC(=O)[C@H](CC(=O)O)NC(=O)[C@H](CCCCN)NC(=O)[C@H](C)NC(=O)[C@H](CCCNC(=N)N)NC(=O)[C@H](CCCNC(=N)N)NC(=O)[C@H](CCC(=O)O)NC(=O)[C@H](CC(=O)O)NC(=O)[C@H](CC(C)C)NC(=O)[C@H](Cc1ccc(O)cc1)NC(=O)[C@H](CCCCN)NC(=O)[C@H](CO)NC(=O)[C@H](Cc1ccc(O)cc1)NC(=O)[C@H](CC(=O)O)NC(=O)[C@H](CO)NC(=O)[C@@H](NC(=O)[C@H](Cc1ccccc1)NC(=O)[C@@H](NC(=O)CNC(=O)[C@H](CCC(N)=O)NC(=O)C1(NC(=O)[C@@H](N)Cc2c[nH]cn2)CCC1)[C@@H](C)O)[C@@H](C)O)C(=O)N[C@@H](CCC(=O)O)C(=O)N[C@@H](Cc1c[nH]c2ccccc12)C(=O)N[C@@H](CC(C)C)C(=O)N[C@@H](CCC(=O)O)C(=O)N[C@@H](CCCCNC(=O)CNC(=O)CNC(=O)[C@H](CO)NC(=O)CNC(=O)[C@H](CO)NC(=O)CNC(=O)CC[C@H](NC(=O)CCCCCCCCCCCCCCCCC(=O)O)C(=O)O)C(=O)N[C@@H](C)C(N)=O [Compound 16]
